The source of these data is patent US10738281B2, “Reprogramming cells” (The Scripps Research Institute, priority 2010, dated 2020).

For test [1], the system named is Human Umbilical Vein Endothelial Cells (HUVECs). Description: Reprogramming of four factor-transduced HUVECs using metabolism modulating compounds. The conditions noted are these: four factor (Klf, Sox, Myc, Oct)-transduced HUVECs, 20,000 cells per well, three weeks; DNP 1 μM, NOG 1 μM, QC 1 μM, OA 10 μM, F2,6P 10 mM.
Protocol: (§1) Four factor (Klf, Sox, Myc, and Oct)-transduced HUVECs were seeded at a density of 20,000 transduced cells per well, treated with metabolism modulating compounds for three weeks and TRA-1-81 positive colonies were counted. F2,6P, 10 mM Fructose 2,6-bisphosphate; F6P, 10 mM Fructose 6-phosphate; 6-AN, 10 μM 6-aminonicotinamide; OA, 10 μM oxalate; DNP, 1 μM 2,4-dinitrophenol; NOG, 1 μM N-oxalylglycine; QC, 1 μM Quercetin; 2-HA, 10 μM 2-Hydroxyglutaric acid; NA, 10 μM nicotinic acid; DMSO was used as a control.
In the next test the test system is NHEKs. Description: Lactate production in the medium as index of glycolysis (Lactate Assay Kit). The conditions noted are these: NHEKs treated 8 d with PS48, PS48 and UCN-01, or PS48 and 2-DG.
Test [2] has as its system Neonatal Human Epidermal Keratinocytes (NHEKs). Kind of test: Reprogramming of transduced NHEKs to iPSCs, TRA-1-81 positive colonies. Conditions: for reprogramming of NHEKs, TRA-1-81 positive colonies (in words): three factor (Klf, Sox, Oct)-transduced NHEKs, 100,000 cells per well, four weeks, 2-DG 10 mM.
Protocol: The culture was split by Accutase (Millipore) and treated with 1 μM Thiazovivin (Stemgent) in the first day after splitting.
The subject of test [3] is GLUT1, HK2, PFK1 and LDHA. Description: Expression of key glycolytic genes after treatment. The conditions noted are these: PS48 treatment.
Protocol: as §1

For `O=[N+]([O-])c1ccc(O)c([N+](=O)[O-])c1` [2,4-dinitrophenol], in test [1], the “effect on reprogramming, TRA-1-81 positive colonies (in words)” value (from here on “effect on reprogramming”) is “enhance reprogramming”.

For the compound `O=CC[C@@H](O)[C@H](O)[C@H](O)CO` [2-Deoxy-D-glucose], the “glycolysis, lactate production in the medium (in words)” value (from here on “glycolysis, lactate production”) with NHEKs was “inhibited glycolysis”. For the same compound, the “reprogramming of NHEKs, TRA-1-81 positive colonies (in words)” value (“reprogramming of NHEKs” for short) in test [2] is on record as “inhibited reprogramming process”.

As for `O=P(O)(O)OC[C@H]1O[C@@](CO)(OP(=O)(O)O)[C@@H](O)[C@@H]1O` [Fructose 2,6-bisphosphate], in test [1], the “effect on reprogramming” value was “corresponding consistent effects on reprogramming”.

For the compound `O=C(O)CNC(=O)C(=O)O` [N-oxalylglycine], the “effect on reprogramming” value in test [1] is recorded as “enhance reprogramming”.

As for `CCCC(=O)[O-].[Na+]` [NaB, sodium butyrate], the “generation of iPSCs under OK condition (in words)” value in test [2] (NHEKs, OCT4 + KLF4, 0.25 mM NaB compared with 0.5 mM VPA) was “much more reliable and efficient than the previously reported 0.5 mM VPA”.

Regarding `O=C(O)/C=C(/CCc1ccc(Cl)cc1)c1ccccc1` [PS48, (Z)-5-(4-Chlorophenyl)-3-phenylpent-2-enoic acid], the “glycolysis, lactate production” value with NHEKs is recorded as “facilitated/activated a metabolic switch to glycolysis”. Moreover, in test [3], the “expression of key glycolytic genes GLUT1, HK2, PFK1 and LDHA (in words)” value is on record as “up-regulated”. For the same compound, the “enhancement of reprogramming efficiency” value in test [2] (NHEKs transduced with OK (OCT4 + KLF4), treated with 0.5 μM PD0325901 and 0.5 μM A-83-01) is given as “about fifteen”. The “reprogramming of NHEKs” value in test [2] is recorded as “enhanced reprogramming”.

On to `O=c1c(O)c(-c2ccc(O)c(O)c2)oc2cc(O)cc(O)c12` [Quercetin, 3,3′,4′,5,7-pentahydroxyflavone], for which the “effect on reprogramming” value in test [1] is recorded as “corresponding consistent effects on reprogramming”.

In the case of `CN[C@@H]1C[C@H]2O[C@@](C)([C@@H]1OC)n1c3ccccc3c3c4c(c5c6ccccc6n2c5c31)C(=O)N[C@@H]4O` [UCN-01], the “glycolysis, lactate production” value with NHEKs is reported as “inhibited glycolysis”. In addition, the “reprogramming of NHEKs” value in test [2] is “inhibited reprogramming process”.

In the case of `O=C(O)C(=O)O` [oxalate], the “effect on reprogramming” value in test [1] is reported as “inhibit reprogramming”.
